Experimental data reported in US20080280996A1, “Use of Carophyllenes in the Manufacture of Medicaments and Treatment of Bodily Conditions of Inflammation and Inflammatory Pain” (priority 2004, published 2008).

What was measured:
[1] = test system: carrageenin-induced paw oedema; test: Carrageenin oedema in mouse paw; format: in vivo; conditions: mice, carrageenin intraplantar; alpha-humulene 50 mg/kg orally 1 h before; dexamethasone 0.5 mg/kg subcutaneously 4 h before; 30 min to 48 h
Experimental: The test used below is described by Cunha et. al. in the publication Life Sci. 70:159-169, 2001. […] The left paw received the same volume of saline and was taken as a negative control. The swelling was measured with a plethysmometer (manufacturer: Ugo Basile, Italy) along various time intervals after the injection of the phlogistic agent. The difference between the volumes of the right and the left paw were quantified (in ml) and taken as an index of oedema. One hour before the test the animals were systemically treated (orally) with 50 mg/kg of alphahumulene or trans-caryophyllene. Graph 2 below compares the inhibition of the volume of the oedema by administration of either alpha-humulene or trans-caryophyllene with inhibition obtained with the administration of dexamethasone (0.5 mg/kg, injected subcutaneously 4 h before test) and used as positive control. Oedema volume measurement time point intervals were 30, 60, 120 and 240 min, 24 h and 48 h. Each point represents the average of 5 animals, and the vertical bars the mean standard error deviation.

PGE2 = test: Levels of PGE2 in carrageenin-injected rat paw exsudate (Elisa); format: in vivo; conditions: 50 mg/kg orally 60 minutes before carrageenin 300 μg/paw, paw exsudate after 180 minutes
Experimental: The test used below is described by Pinheiro et. al. in the publication Inflamm. Res. 51: 603-610, 2002, with minor modifications. Male 160-180 g rats were orally given 50 mg/kg of trans-caryophyllene. Animals treated with 0.9% (0.1 ml/10 g) saline were used as control. Another group of animals was treated with 0.5 mg/kg dexamethasone, subcutaneously, 4 hours before the test, and used as positive control. After 60 minutes, the animals received intraplantar injections of 100 μl of carrageenin (300 μg/paw) and were sacrificed after 180 minutes. The exsudate of the paws was collected by dialysis with the help of two polyethylene canulas, and was utilized for the quantification of PGE2, with an Elisa kit, according to the manufacturer's instructions (R & D Systems®, USA). The tests were performed in duplicate, and repeated three times. The answers are expressed in pg/mg of tissue. Graph 9 below (each result represents the average of 5 animals, and the vertical bars the mean standard error deviation) compares inhibition of the PGE2 level growth induced by carrageenin in the paws of rats, by administration of alpha-humulene and trans-caryophyllene, compared to the effect obtained by treatment with dexomethasone.

IL-1β = test: Levels of pro-inflammatory cytokine IL-1β in carrageenin-injected rat paw (Elisa); format: in vivo; conditions: 50 mg/kg orally 60 minutes before carrageenin 300 μg/paw, tissue after 180 minutes
Experimental: The test used below is described by Campos et. al. in the publication Br. J. Pharmacol. 135: 1107-1114, 2002, with minor modifications. Male 160-180 g rats were orally given 50 mg/kg of alpha-humulene. Animals treated with 0.9% (0.1 ml/10 g) saline were used as control. Another group of animals was treated with 0.5 mg/kg dexamethasone, subcutaneously, 4 hours before the test, and used as positive control. After 60 minutes, the animals received intraplantar injections of 100 μl of carrageenin (300 μg/paw) and were sacrificed after 180 minutes. Control animals received saline. The subcutaneous tissue of the injected paws was removed and put in a phosphate buffer containing 0.5% tween 20, 0.1 mM benzametonium chloride, 10 mM EDTA, 2 μg/m aprotinin, 0.1 mM PMSF (phenyl methyl sulfonyl fluoride) and 0.5% BSA (bovine serum albumin). The tissues were homogenized and centrifuged at 3000 g, for 10 min, at −4° C. The supernatant was used in the test. The levels of IL-1β were measures with an Elisa kit, according to the manufacturer's instructions (R & D Systems®, USA). The tests were performed in duplicate, and repeated three times. The answers are expressed in pg/mg of tissue. […]

[2] = reference: Carcinogenesis (2002), 23(5), 795-802; cited from earlier work
[3] = test system: carrageenin-induced inflammatory nociception in the hind paw; test: Inflammatory nociception induced by carrageenin (von Frey filament); format: in vivo; conditions: mice, carrageenin 300 μg per paw intraplantar; alpha-humulene 50 mg/kg orally or paracetamol 600 mg/kg orally, 1 h before; evaluated after 3, 4 and 6 hours
Experimental: The evaluation methodology used in this test is described by Vaz et al. in J. Pharmacol. Exp. Ther. 278:304-312, 1996. Male mice (25-35 g) were systemically (orally) treated with alpha-humulene, 50 mg/kg, administered 1 hour before the experiment. Animals treated with 0.9% saline solution (0.1 ml/10 g) were used as the control. Another group of animals was treated with paracetamol (600 mg/kg, orally, administered 1 h before the treatment), that was used as positive control. For the induction of inflammatory pain, the animals received an intraplantar injection of 0.05 ml of carrageenin (300 μg per paw) at the plantar surface of the right hind paw. […] The nociception was evaluated with a Von Frey filament (0.4 g) after 3, 4 and 6 hours. […] The filament was applied to the right hind paw, complying with the criteria of (1) the application was perpendicular to the plantar surface, with enough pressure to cause the filament to bend, thus obtaining total pressure; (2) the animals were evaluated when the four paws were touching the screen; (3) the paw withdrawal response was considered when the animal removed the paw entirely from the support screen; (4) each animal was stimulated 10 consecutive times, each stimulation lasting 1 second; (5) each paw withdrawal event was considered as 10% of the response, with 10 withdrawal events corresponding to 100% response. […]

iNOS = test: Expression of enzyme iNOS in carrageenin-injected rat paw (Western blot); format: in vivo; conditions: 50 mg/kg orally 60 minutes before carrageenin 300 μg/paw, subcutaneous paw tissue
Experimental: Animals treated with 0.9% (0.1 ml/10 g) saline were used as control. Another group of animals was treated with 0.5 mg/kg dexamethasone, subcutaneously, 4 hours before the test, and used as positive control. After 60 minutes, the animals received intraplantar injections of 100 μl of carrageenin (300 μg/paw) and were sacrificed after 180 minutes, and subcutaneous paw tissue was removed 240 minutes after the carrageenin injection. The collected tissue was immediately frozen in liquid nitrogen and re-suspended in a buffer of hypotonic lysis (10 mM HEPES N-2-hydroxyethylpiperazine-N'-2-ethanesulfonic acid, 1.5 mM MgCl2, 10 mM KCl, 0.5 mM PMSF phenylmethylsulphonyl fluoride, 1.5 μg/ml trypsin inhibitor, 7 μg/ml pepstatin A, 5 μg/ml leupeptin, 0.1 mM benzamidine 0.1 mM and 0.5 mM dithiothreitol) and homogenized. The homogenate was divided in three 2 ml aliquots, cooled in ice for 15 minutes, vigorously agitated and once again cooled in ice, in the presence of 20 μl 10% non-ionic detergent Nonidet P-40 (Roche Diagnostics, USA). […] The protein concentration was determined by the Bradford method (BioRad Laboratories Inc. kit, Milan, Italy). […] The bands thus obtained were quantified using a chemoluminescence kit and densitometry analysis (relative units) in radiographic films.

Compound	inflammatory volume (paw oedema volume) [1]	growth of PGE2 levels induced by carrageenin in the paws of rats (PGE2)	production of pro-inflammatory cytokine IL-1β induced by carrageenin in the paws of rats (IL-1β)	anti-inflammatory or chemo-therapic effects [2]	inflammatory nociception (paw withdrawal response to 0.4 g von Frey filament) [3]	expression of enzymes iNOS induced by carrageenin in the paws of rats (iNOS)
C/C1=C\CC/C(C)=C/CC(C)(C)/C=C/C1 [alpha-humulene]	reduced the inflammatory volume	markedly inhibited the growth of PGE2 levels	markedly inhibited the production	virtually inactive	reduced the inflammatory nociception	markedly inhibited the expression
C=C1CC/C=C(\C)CC[C@@H]2[C@@H]1CC2(C)C [trans-caryophyllene]		markedly inhibited the growth of PGE2 levels				
